# Laboratory results reported in paper PMC6630832, “3-Vinylazetidin-2-Ones: Synthesis, Antiproliferative and Tubulin Destabilizing Activity in MCF-7 and MDA-MB-231 Breast Cancer Cells” (Pharmaceuticals, 2019).
# “And” between values parts separate entries of the source, which are not always exact repeats. Equal values may be shown once. Read-outs that look alike come from different tables or passages of the source.
# What was measured:
# [1] = biological target: T1, purified bovine tubulin (Bos taurus, UniProt P81947+Q6B856); experiment: Tubulin polymerization assay; format: biochemical; conditions: for vmax of tubulin polymerization: absorbance at 340 nm, 37 °C
# T1 construct: Purified (>99%) bovine brain tubulin (3 mg/mL); purchased Cytoskeleton Inc. BK006; host or cells: bovine brain (tissue-purified)
# T1 sequence (Q6B856 whole entry): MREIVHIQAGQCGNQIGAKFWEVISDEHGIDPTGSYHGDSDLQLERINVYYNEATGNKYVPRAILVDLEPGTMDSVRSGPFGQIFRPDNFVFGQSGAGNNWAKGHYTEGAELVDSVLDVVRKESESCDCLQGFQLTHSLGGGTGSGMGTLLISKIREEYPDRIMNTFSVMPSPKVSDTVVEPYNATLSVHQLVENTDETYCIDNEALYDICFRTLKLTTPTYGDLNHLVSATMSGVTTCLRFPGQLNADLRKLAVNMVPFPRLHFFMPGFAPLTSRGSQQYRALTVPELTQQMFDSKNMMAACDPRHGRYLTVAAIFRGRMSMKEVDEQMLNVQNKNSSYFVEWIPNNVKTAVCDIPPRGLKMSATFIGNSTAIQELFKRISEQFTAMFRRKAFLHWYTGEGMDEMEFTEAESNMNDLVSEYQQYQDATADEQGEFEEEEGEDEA
# T1 sequence (P81947 whole entry): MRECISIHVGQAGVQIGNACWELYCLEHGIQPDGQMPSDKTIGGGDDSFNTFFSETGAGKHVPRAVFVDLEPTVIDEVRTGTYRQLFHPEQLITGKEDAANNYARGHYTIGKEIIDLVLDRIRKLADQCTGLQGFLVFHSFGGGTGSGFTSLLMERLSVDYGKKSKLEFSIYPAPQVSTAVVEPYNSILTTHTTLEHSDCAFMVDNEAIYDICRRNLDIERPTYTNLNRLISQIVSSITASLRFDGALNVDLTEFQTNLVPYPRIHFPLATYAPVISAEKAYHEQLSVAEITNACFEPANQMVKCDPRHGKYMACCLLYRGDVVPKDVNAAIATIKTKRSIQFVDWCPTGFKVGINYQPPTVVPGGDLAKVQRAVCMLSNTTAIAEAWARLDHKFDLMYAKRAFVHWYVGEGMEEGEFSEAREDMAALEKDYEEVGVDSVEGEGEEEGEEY
# Description: The assembly of purified bovine tubulin was monitored using a kit, BK006, purchased from Cytoskeleton Inc., 1830 S Acoma St, Denver, CO, 80223, USA.. The assay was carried out in accordance with the manufacturer’s instructions in the tubulin polymerisation assay kit manual using the standard assay conditions. The values reported represent the average values from two independent assays. Purified (>99%) bovine brain tubulin (3 mg/mL) in a buffer consisting of 80 mM PIPES (pH 6.9), 0.5 mM EGTA, 2 mM MgCl2, 1 mM GTP and 10% glycerol was incubated at 37 °C in the presence of either vehicle (2% (v/v) ddH2O) or compounds 7h, 7i, 7s, 7t (initially 10 µM in EtOH); CA-4 and Paclitaxel were used as controls. Light is scattered proportionally to the concentration of polymerised microtubules in the assay. Therefore, tubulin assembly was monitored turbidimetrically at 340 nm at 37 °C in a Spectramax 340 PC spectrophotometer (Molecular Devices, 3860 N 1st St, San Jose, CA, USA). The absorbance was measured at 30 s intervals for 60 min.
# [2] = system: ACHN; experiment: NCI60 screen (SRB), Renal cancer; format: cell-based; conditions: Homo sapiens
# [3] = system: A498; experiment: NCI60 screen (SRB), Renal cancer; format: cell-based; conditions: Homo sapiens
# [4] = system: MDA-MB-468; experiment: NCI60 screen (SRB), Breast cancer; format: cell-based; conditions: Homo sapiens
# [5] = system: SK-MEL-28; experiment: NCI60 screen (SRB), Melanoma; format: cell-based; conditions: Homo sapiens
# [6] = system: SW-620; experiment: NCI60 screen (SRB), Colon Cancer; format: cell-based; conditions: Homo sapiens
# [7] = system: UACC-257; experiment: NCI60 screen (SRB), Melanoma; format: cell-based; conditions: Homo sapiens
# [8] = system: SK-OV-3; experiment: NCI60 screen (SRB), Ovarian cancer; format: cell-based; conditions: Homo sapiens
# [9] = system: UO-31; experiment: NCI60 screen (SRB), Renal cancer; format: cell-based; conditions: Homo sapiens
# [10] = system: LOX IMVI; experiment: NCI60 screen (SRB), Melanoma; format: cell-based; conditions: Homo sapiens
# [11] = system: MDA-MB-435; experiment: NCI60 screen (SRB), Melanoma; format: cell-based; conditions: Homo sapiens
# [12] = system: U251; experiment: NCI60 screen (SRB), CNS Cancer; format: cell-based; conditions: Homo sapiens, U-251
# [13] = system: HCT-15; experiment: NCI60 screen (SRB), Colon Cancer; format: cell-based; conditions: Homo sapiens
# [14] = system: RXF 393; experiment: NCI60 screen (SRB), Renal cancer; format: cell-based; conditions: Homo sapiens
# [15] = system: HS 578T; experiment: NCI60 screen (SRB), Breast cancer; format: cell-based; conditions: Homo sapiens
# [16] = system: COLO 205; experiment: NCI60 screen (SRB), Colon Cancer; format: cell-based; conditions: Homo sapiens
# [17] = HPLC stability study in phosphate buffers; format: physicochemical; conditions: phosphate buffer, read-out: half-life (t½)
# Description: Analytical high-performance liquid chromatography (HPLC) stability studies were performed using a Symmetry® column (C18, 5 µm, 4.6 × 150 mm), a Waters 2487 Dual Wavelength Absorbance detector, a Waters 1525 binary HPLC pump and a Waters 717 plus Autosampler (Waters Corporation, 34 Maple St, Milford, MA, USA). Samples were detected at wavelength of 254 nm. All samples were analysed using acetonitrile (80%) and water (20%) as the mobile phase over 10 min and a flow rate of 1 mL/min. Stock solutions were prepared by dissolving 5 mg of compound 7s, 17b and 17c in 10 mL of mobile phase. Phosphate buffers at the desired pH values (4, 7.4 and 9) were prepared in accordance with the British Pharmacopoeia monograph 2015. 30 µL of stock solution was diluted with 1 mL of appropriate buffer, shaken and injected immediately. Samples were withdrawn and analysed at time intervals of t = 0 min, 5 min, 30 min, 60 min, 90 min, 120 min, 24 h and 48 h. Plasma stability studies: 360 µL stock solution of compounds 7s, 17b and 17c were transferred to buffered plasma (plasma: buffer = 1:9, 4 mL in total) at 37 °C in screw cap container. Immediately a 250 µL aliquot was withdrawn and added to the Eppendorf tube containing 500 µL ZnSO4.7H2O solution (2% w/v ZnSO4 solution in acetonitrile: water, 1:1). The samples were then centrifuged at 10,000 rpm for 3 min and filtered through a 0.2-micron filter and injected according to the HPLC conditions listed above. Further samples were taken in the same manner every 1 h thereafter up to 6 h. A final sample was taken after 24 h. Whole blood stability studies. A 360 µL aliquot of stock solution of compounds 17b and 17c in acetonitrile was added in whole blood (4 mL, treated with 2% sodium citrate) at 37 °C and 300 µL aliquots were withdrawn at approptiate intervals. Samples were transferred to 1.5 mL Eppenddorf tubes containing 1 mL of ZnSO4. 7H2O solution (2% w/v ZnSO4 solution in acetonitrile: water, 1:1), vortexed and then centrifuged for 5 min at 14,000 rpm. The sample filtered through a 0.2-micron filter and injected according to the HPLC conditions listed above.
# [18] = system: HL-60(TB); experiment: NCI60 screen (SRB), Leukemia; format: cell-based; conditions: Homo sapiens; NCI60 Leukemia cell line HL-60(TB)
# [19] = system: CCRF-CEM; experiment: NCI60 screen (SRB), Leukemia; format: cell-based; conditions: Homo sapiens
# [20] = 10 μM, with reference to ethanol control
# [21] = NCI60 Renal cancer cell line ACHN, read-out: GI50
# [22] = NCI60 Renal cancer cell line A498, read-out: GI50
# [23] = NCI60 Breast cancer cell line MDA-MB-468, read-out: GI50
# [24] = NCI60 Melanoma cell line SK-MEL-28, read-out: GI50
# [25] = NCI60 Colon Cancer cell line SW-620, read-out: GI50
# [26] = NCI60 Melanoma cell line UACC-257, read-out: GI50
# [27] = NCI60 Ovarian cancer cell line SK-OV-3, read-out: GI50
# [28] = NCI60 Renal cancer cell line UO-31, read-out: GI50
# [29] = NCI60 Melanoma cell line LOX IMVI, read-out: GI50
# [30] = NCI60 Melanoma cell line MDA-MB-435, read-out: GI50
# [31] = NCI60 CNS Cancer cell line U251, read-out: GI50
# [32] = NCI60 Colon Cancer cell line HCT-15, read-out: GI50
# [33] = NCI60 Renal cancer cell line RXF 393, read-out: GI50
# [34] = NCI60 Breast cancer cell line HS 578T, read-out: GI50
# [35] = NCI60 Colon Cancer cell line COLO 205, read-out: GI50
# [36] = NCI60 Leukemia cell line CCRF-CEM, read-out: GI50
Structure (SMILES),"fold reduction in vmax of tubulin polymerization [1, 20]","GI50 [2, 21]","GI50 [3, 22]","GI50 [4, 23]",half-life at 14.6 µg/mL ([17]; pH 4),half-life at 14.6 µg/mL ([17]; pH 7.4),half-life at 14.6 µg/mL ([17]; pH 9),"GI50 [5, 24]","GI50 [6, 25]","GI50 [7, 26]","GI50 [8, 27]","GI50 [9, 28]","GI50 [10, 29]","GI50 [11, 30]","GI50 [12, 31]","GI50 [13, 32]","GI50 [14, 33]","GI50 [15, 34]","GI50 [16, 35]",GI50 [18],also measured
"COc1ccc(/C=C\c2cc(OC)c(OC)c(OC)c2)cc1O [CA-4, Combretastatin A-4, reference compound]",–,–,–,–,–,–,–,–,–,–,–,–,–,–,–,–,–,–,–,–,fold reduction in vmax of tubulin polymerization [1]: 5.28 fold
"C=CC1C(=O)N(c2cc(OC)c(OC)c(OC)c2)C1c1ccc(OC)cc1 (stereo not drawn) [Compound 7h, 4-(4-Methoxyphenyl)-1-(3,4,5-trimethoxyphenyl)-3-vinylazetidin-2-one]",2.45 fold,–,–,–,–,–,–,–,–,–,–,–,–,–,–,–,–,–,–,–,GI50 ([2]; ACHN): 61.5 nM; GI50 ([3]; A498): 18.3 nM; GI50 ([4]; MDA-MB-468): 22.7 nM; GI50 ([5]; SK-MEL-28): 59.9 nM; GI50 ([6]; SW-620): 40.2 nM; GI50 ([7]; UACC-257): 42200 nM; GI50 ([8]; SK-OV-3): 28.5 nM; GI50 ([9]; UO-31): 70.9 nM; GI50 ([10]; LOX IMVI): 41.6 nM; GI50 ([11]; MDA-MB-435): 22.6 nM; GI50 [12]: 34.2 nM; GI50 ([13]; HCT-15): 37.1 nM; vmax of tubulin polymerization ([1]; 10 μM): 3.43 mOD/min; GI50 ([14]; RXF 393): 28.7 nM; GI50 ([15]; Hs-578T): 72.7 nM; GI50 ([16]; COLO 205): 20.6 nM
"C=CC1C(=O)N(c2cc(OC)c(OC)c(OC)c2)C1c1ccc(OC)c(O)c1 (stereo not drawn) [Compound 7s, 4-[3-Hydroxy-4-methoxyphenyl]-1-(3,4,5-trimethoxyphenyl)-3-vinylazetidin-2-one]",8.7 fold and 8.70 fold,< 10 nM,< 10 nM,< 10 nM,> 24 h,> 24 h,> 24 h,< 10 nM,< 10 nM,> 100000 nM,10.5 nM,11.1 nM,< 10 nM,< 10 nM,15.6 nM,18 nM,13.6 nM,< 10 nM,32.1 nM,–,"fold reduction in vmax of tubulin polymerization ([1]; 1 μM): 2.61 fold; fold reduction in vmax of tubulin polymerization ([1]; 5 μM): 7.31 fold; IC50 ([1]; calculated from 1, 5 and 10 μM, read-out: IC50 for the inhibition of tubulin polymerization): 1370 nM"
"C=CC1C(=O)N(c2cc(OC)c(OC)c(OC)c2)C1c1ccc(OC)c(N)c1 (stereo not drawn) [Compound 7t, 4-(3-Amino-4-methoxyphenyl)-1-(3,4,5-trimethoxyphenyl)-3-vinylazetidin-2-one]",9.15 fold,–,–,–,–,–,–,–,–,–,–,–,–,–,–,–,–,–,–,13.7 nM,GI50 ([2]; ACHN): 37.3 nM; GI50 ([3]; A498): 11 nM; GI50 ([4]; MDA-MB-468): < 10 nM; GI50 ([5]; SK-MEL-28): 18.1 nM; GI50 ([6]; SW-620): 40.5 nM; GI50 ([7]; UACC-257): > 100000 nM; GI50 ([8]; SK-OV-3): 45.7 nM; GI50 ([9]; UO-31): 64 nM; GI50 ([10]; LOX IMVI): < 10 nM; GI50 ([11]; MDA-MB-435): < 10 nM; GI50 [12]: 36.2 nM; GI50 ([13]; HCT-15): 28.7 nM; GI50 ([19]; CCRF-CEM): 32.6 nM; vmax of tubulin polymerization ([1]; 10 μM): 0.92 mOD/min; GI50 ([14]; RXF 393): 36.6 nM; GI50 ([15]; Hs-578T): 39.8 nM; GI50 ([16]; COLO 205): 17.5 nM
"C=CC1C(=O)N(c2cc(OC)c(OC)c(OC)c2)C1c1ccc(OC)c(OP(=O)(O)O)c1 (stereo not drawn) [Compound 17b, 2-Methoxy-5-(1-(3,4,5-trimethoxyphenyl)-4-oxo-3-vinylazetidin-2-yl)phenyl dihydrogen phosphate]",–,64.5 nM,21.8 nM,49.6 nM,> 24 h,> 24 h,> 24 h,97.7 nM,55.2 nM,> 100000 nM,97.7 nM,254 nM,42.2 nM,21 nM,34.3 nM,47.4 nM,64.8 nM,53.1 nM,1910 nM,27.3 nM,"GI50 [19, 36]: 60.4 nM"
"CCC1C(=O)N(c2cc(OC)c(OC)c(OC)c2)C1c1ccc(OC)c(OP(=O)(O)O)c1 (stereo not drawn) [Compound 17c, 5-(3-Ethyl-1-(3,4,5-trimethoxyphenyl)-4-oxoazetidin-2-yl)-2-methoxyphenyl dihydrogen phosphate]",–,38.5 nM,12.9 nM,27.6 nM,> 24 h,> 24 h,> 24 h,7460 nM,37.9 nM,> 100000 nM,34.1 nM,42.6 nM,24.1 nM,12.8 nM,31.3 nM,29.6 nM,36.9 nM,37.1 nM,204 nM,28.8 nM,"GI50 [19, 36]: 32.5 nM"
